In PMC9554092, “Self-assembled peptide-paclitaxel nanoparticles for enhancing therapeutic efficacy in colorectal cancer” (Frontiers in Bioengineering and Biotechnology, 2022):

Tests used:
[1] = system: HCT116 cells; experiment: Cell apoptosis, Annexin V-Alexa Fluor488/PI flow cytometry; format: cell-based, human; conditions: HCT116, PTX concentration 5 μg/ml, 48 h, representative result
Procedure: HCT116 cells were seeded in six-well plates at a density of 1 × 10^4 cells per well and incubated at 37°C until a confluence of 80%. The cells were treated with PTX, Rev-PTX NPs, LPK-PTX NPs at normalized PTX concentration of 5 μg/ml at 37°C for 48 h. Then the cells were trypsinzed, washed, and stained with Annexin V-Alexa Fluor488/PI according to manufacturer’s protocol (Life Technologies, United States). The cell apoptosis was monitored by flow cytometry (BD, CA, United States) and the apoptotic percentage of three independent experiments was analyzed.

[2] = system: colorectal cancer patient-derived xenografts (PDX); experiment: In vivo therapeutic efficacy in CRC patient-derived xenograft (PDX) model; conditions: CRC PDX mice
Procedure: (§1) The therapeutic efficacy of was evaluated in PDX mice model. When the tumor volume reached about 100 mm3, mice were randomly assigned into four groups (six mice per group) and intravenously administered with DMSO, free PTX, Rev-PTX NPs and LPK-PTX NPs respectively at an equivalent dose of 0.8 mg/kg PTX every 3 days. Total mice body weights and tumor sizes were recorded every 3 days. At the end of the observation, tumors and major organs including heart, liver, spleen, lung, colon and kidney were isolated, […] and subjected to hematoxylin and eosin (H&E) and Ki-67 staining using standard protocols for histopathological analysis.

[3] = Systemic toxicity in the PDX model (body weight, H&E of major organs); format: in vivo; conditions: PDX mice
Procedure: as §1

For `CC(=O)O[C@H]1C(=O)[C@@]2(C)[C@H]([C@H](OC(=O)c3ccccc3)[C@]3(O)C[C@H](OC(=O)[C@H](O)[C@@H](NC(=O)c4ccccc4)c4ccccc4)C(C)=C1C3(C)C)[C@]1(OC(C)=O)CO[C@@H]1C[C@@H]2O` [PTX, Paclitaxel], the “early plus late apoptosis (Q3 + Q2)” value [1] was 44.8%, the “Ki-67 staining of tumor tissue” value [2] was “numerous Ki-67-positive cells” and the “colon histology (HE)” value [3] was “severe crypt destruction”. For the same compound, the “HE-stained sections of colon, lung and liver” value ([3]; 0.8 mg/kg PTX equivalent i.v. every 3 days) was “serious damages”.
